Assay results published in patent US11161864B2, “Sting agonists” (Venenum Biodesign, LLC, priority 2018, dated 2021).

molecular target: murine STING protein (amino acids 154-378) (Mus musculus (Mouse), UniProt Q3TBT3); test: Murine STING [3H] 2′,3′-cGAMP scintillation proximity competition binding assay; settings: read-out: Murine Binding IC50
Sequence (Q3TBT3 154-378): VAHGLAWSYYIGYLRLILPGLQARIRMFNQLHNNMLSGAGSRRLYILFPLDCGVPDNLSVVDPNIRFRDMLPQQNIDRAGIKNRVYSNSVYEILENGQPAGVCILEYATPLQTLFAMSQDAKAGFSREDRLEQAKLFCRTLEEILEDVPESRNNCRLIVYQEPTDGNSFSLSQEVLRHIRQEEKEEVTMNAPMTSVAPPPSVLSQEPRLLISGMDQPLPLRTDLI

SMILES	IC50
Nc1nc2c(ncn2[C@@H]2O[C@@H]3COP(=O)(S)OCCn4c(nc5cc(Cl)cnc54)COP(=O)(S)O[C@@H]2[C@@H]3F)c(=O)[nH]1 (single isomer, unassigned) [Example 14D]	< 1000 nM
Nc1nc2c(ncn2[C@@H]2O[C@@H]3COP(=O)(O)OCCn4c(nc5cncnc54)COP(=O)(S)O[C@@H]2[C@@H]3F)c(=O)[nH]1 (single isomer, unassigned) [Example 5A]	< 1000 nM
Nc1nc2c(ncn2[C@@H]2O[C@@H]3COP(=S)(S)OCCn4c(nc5cncnc54)COP(=O)(S)O[C@@H]2[C@@H]3F)c(=O)[nH]1 (stereo partly drawn) [Example 39, (1S,21R,23R,24R)-23-(2-Amino-6-oxo-6,9-dihydro-1H-purin-9-yl)-24-fluoro-3,18-disulfanyl-18-sulfanylidene-2,4,17,19,22-pentaoxa-7,10,12,14-tetraaza-3lambda5,18lambda5-diphosphatetracyclo[19.2.1.06,14.08,13]tetracosa-6,8(13),9,11-tetraen-3-one]	< 1000 nM
Nc1nc2c(ncn2[C@@H]2O[C@@H]3COP(=O)(S)OCCn4c(nc5c(=O)[nH]cnc54)COP(=O)(S)O[C@@H]2[C@@H]3F)c(=O)[nH]1 (single isomer, unassigned) [Example 3D]	1000 to 9990 nM
Nc1nc2ncn([C@@H]3O[C@@H]4COP(=O)(S)OCCn5c(nc6cc(Cl)cnc65)COP(=O)(S)O[C@@H]3[C@@H]4F)c2c(=O)[nH]1 (single isomer, unassigned) [Example 13A]	< 1000 nM
Nc1nc2c(ncn2[C@@H]2O[C@@H]3COP(=O)(S)OCCn4c(nc5cnc(C6CC6)nc54)COP(=O)(S)O[C@@H]2[C@@H]3F)c(=O)[nH]1 (single isomer, unassigned) [Example 12D]	1000 to 9990 nM
Nc1nc2c(ncn2[C@@H]2O[C@@H]3COP(=O)(S)OCCn4c(nc5cncnc54)COP(=O)(O)O[C@@H]2[C@@H]3F)c(=O)[nH]1 (single isomer, unassigned) [Example 6A]	< 1000 nM
Nc1nc2c(ncn2[C@@H]2O[C@@H]3COP(=O)(S)OCCn4c(nc5cncnc54)COP(=O)(S)O[C@@H]2[C@@H]3O)c(=O)[nH]1 (single isomer, unassigned) [Example 15D]	< 1000 nM
Nc1nc2c(ncn2[C@@H]2O[C@@H]3COP(=O)(S)OCCn4c(nc5cnccc54)COP(=O)(S)O[C@@H]2[C@@H]3F)c(=O)[nH]1 (single isomer, unassigned) [Example 17C]	< 1000 nM
Nc1nc2c(ncn2[C@@H]2O[C@@H]3COP(=O)(S)OCCn4c(nc5cc(Cl)cnc54)COP(=O)(S)O[C@@H]2[C@@H]3F)c(=O)[nH]1 (single isomer, unassigned) [Example 14A]	< 1000 nM

Continued, values first:

IC50	SMILES
10000 to 100000 nM	Nc1nc2c(nnn2[C@@H]2O[C@@H]3COP(=O)(S)OCCn4c(nc5cncnc54)COP(=O)(S)O[C@@H]2[C@@H]3F)c(=O)[nH]1 (single isomer, unassigned) [Example 24B]
10000 to 100000 nM	C[C@H]1COP(=O)(S)OC[C@H]2O[C@@H](n3cnc4c(=O)[nH]c(N)nc43)[C@H](OP(=O)(S)OCc3nc4cncnc4n31)[C@@H]2F (single isomer, unassigned) [Example 20D]
1000 to 9990 nM	Nc1nc2c(ncn2[C@@H]2O[C@@H]3COP(=O)(S)OCCn4nc(-c5ccncc5)nc4COP(=O)(S)O[C@@H]2[C@@H]3F)c(=O)[nH]1 (single isomer, unassigned) [Example 34B]
< 1000 nM	Nc1nc2c(nnn2[C@@H]2O[C@@H]3COP(=O)(S)OCCn4c(nc5cncnc54)COP(=O)(S)O[C@@H]2[C@@H]3F)c(=O)[nH]1 (single isomer, unassigned) [Example 24D]
10000 to 100000 nM	Nc1nc2c(nc3n2CCOP(=O)(S)OC[C@H]2O[C@@H](n4cnc5c(N)ncnc54)[C@H](OP(=O)(S)OC3)[C@@H]2F)c(=O)[nH]1 (single isomer, unassigned) [Example 23D]
< 1000 nM	Nc1nc2c(nnn2[C@@H]2O[C@@H]3COP(=O)(S)OCCn4c(nc5cncnc54)COP(=O)(S)O[C@@H]2[C@@H]3F)c(=O)[nH]1 (single isomer, unassigned) [Example 24C]
